Data as given in the kinase profiling compilation of Christmann-Franck et al. (2016).
One block for each compound: values may come before it.

What was measured:
[1] = target: BMP2K (human) (UniProt Q9NSY1); assay: KINOMEscan competition binding; details: compound 10.0 µM
[2] = target: DAPK3 (human) (UniProt O43293); assay: KINOMEscan competition binding; details: compound 10.0 µM
[3] = target: CAMKK2 (human) (UniProt Q96RR4); assay: KINOMEscan competition binding; details: compound 10.0 µM
[4] = target: PTK2B (human) (UniProt Q14289); assay: KINOMEscan competition binding; details: compound 10.0 µM
[5] = target: ULK1 (human) (UniProt O75385); assay: KINOMEscan competition binding; details: compound 10.0 µM
[6] = test system: ABL1 (human), P00519 [F317I]; assay: KINOMEscan competition binding; details: compound 10.0 µM
[7] = target: RPS6KA6 KD2 (human) (UniProt Q9UK32); assay: KINOMEscan competition binding; details: compound 10.0 µM
[8] = target: NEK9 (human) (UniProt Q8TD19); assay: KINOMEscan competition binding; details: compound 10.0 µM
[9] = target: SLK (human) (UniProt Q9H2G2); assay: KINOMEscan competition binding; details: compound 10.0 µM
[10] = target: PLK1 (human) (UniProt P53350); assay: KINOMEscan competition binding; details: compound 10.0 µM
[11] = target: STK10 (human) (UniProt O94804); assay: KINOMEscan competition binding; details: compound 10.0 µM
[12] = target: FER (human) (UniProt P16591); assay: KINOMEscan competition binding; details: compound 10.0 µM
[13] = target: CHEK1 (human) (UniProt O14757); assay: KINOMEscan competition binding; details: compound 10.0 µM
[14] = target: GAK (human) (UniProt O14976); assay: KINOMEscan competition binding; details: compound 10.0 µM
[15] = target: PIP4K2B (human) (UniProt P78356); assay: KINOMEscan competition binding; details: compound 10.0 µM
[16] = target: RPS6KA1 KD2 (human) (UniProt Q15418); assay: KINOMEscan competition binding; details: compound 10.0 µM
[17] = target: STK33 (human) (UniProt Q9BYT3); assay: KINOMEscan competition binding; details: compound 10.0 µM
[18] = target: DCLK3 (human) (UniProt Q9C098); assay: KINOMEscan competition binding; details: compound 10.0 µM
[19] = target: TTK (human) (UniProt P33981); assay: KINOMEscan competition binding; details: for kinase still bound, per cent of control: compound 10.0 µM
[20] = test system: ABL1 (human), P00519 [F317L]; assay: KINOMEscan competition binding; details: compound 10.0 µM
[21] = target: ULK2 (human) (UniProt Q8IYT8); assay: KINOMEscan competition binding; details: compound 10.0 µM
[22] = target: MERTK (human) (UniProt Q12866); assay: KINOMEscan competition binding; details: compound 10.0 µM
[23] = test system: EGFR (human), P00533 [A750P; 747-749 del]; assay: KINOMEscan competition binding; details: compound 10.0 µM
[24] = target: TNK2 (human) (UniProt Q07912); assay: KINOMEscan competition binding; details: compound 10.0 µM
[25] = target: FES (human) (UniProt P07332); assay: KINOMEscan competition binding; details: compound 10.0 µM
[26] = target: SIK1 (human) (UniProt P57059); assay: KINOMEscan competition binding; details: compound 10.0 µM
[27] = target: PLK3 (human) (UniProt Q9H4B4); assay: KINOMEscan competition binding; details: compound 10.0 µM
[28] = target: SIK2 (human) (UniProt Q9H0K1); assay: KINOMEscan competition binding; details: compound 10.0 µM
[29] = target: FRK (human) (UniProt P42685); assay: KINOMEscan competition binding; details: compound 10.0 µM
[30] = target: NEK5 (human) (UniProt Q6P3R8); assay: KINOMEscan competition binding; details: compound 10.0 µM
[31] = test system: FLT3 (human), P36888 [D835Y]; assay: KINOMEscan competition binding; details: compound 10.0 µM
[32] = target: TYK2 JH2 pseudokinase (human) (UniProt P29597); assay: KINOMEscan competition binding; details: compound 10.0 µM
[33] = target: PTK2 (human) (UniProt Q05397); assay: KINOMEscan competition binding; details: compound 10.0 µM
[34] = test system: FLT3 (human), P36888 [D835H]; assay: KINOMEscan competition binding; details: compound 10.0 µM
[35] = target: RIOK1 (human) (UniProt Q9BRS2); assay: KINOMEscan competition binding; details: compound 10.0 µM
[36] = target: CDC2L2 (human) (UniProt Q9UQ88); assay: KINOMEscan competition binding; details: compound 10.0 µM
[37] = test system: KIT (human), P10721 [V559D/T670I]; assay: KINOMEscan competition binding; details: compound 10.0 µM
[38] = target: FLT1 (human) (UniProt P17948); assay: KINOMEscan competition binding; details: compound 10.0 µM
[39] = target: KDR (human) (UniProt P35968); assay: KINOMEscan competition binding; details: compound 10.0 µM
[40] = target: CDK11B (human) (UniProt P21127); assay: KINOMEscan competition binding; details: compound 10.0 µM
[41] = target: FLT4 (human) (UniProt P35916); assay: KINOMEscan competition binding; details: compound 10.0 µM
[42] = target: MARK3 (human) (UniProt P27448); assay: KINOMEscan competition binding; details: compound 10.0 µM
[43] = test system: RET (human), P07949 [M918T]; assay: KINOMEscan competition binding; details: compound 10.0 µM
[44] = target: TIE1 (human) (UniProt P35590); assay: KINOMEscan competition binding; details: compound 10.0 µM
[45] = target: RPS6KA2 KD2 (human) (UniProt Q15349); assay: KINOMEscan competition binding; details: compound 10.0 µM
[46] = target: PDGFRB (human) (UniProt P09619); assay: KINOMEscan competition binding; details: compound 10.0 µM
[47] = target: DDR1 (human) (UniProt Q08345); assay: KINOMEscan competition binding; details: compound 10.0 µM
[48] = target: TLK1 (human) (UniProt Q9UKI8); assay: KINOMEscan competition binding; details: compound 10.0 µM
[49] = target: PIM1 (human) (UniProt P11309); assay: KINOMEscan competition binding; details: compound 10.0 µM
[50] = target: DAPK1 (human) (UniProt P53355); assay: KINOMEscan competition binding; details: compound 10.0 µM
[51] = target: PHKG1 (human) (UniProt Q16816); assay: KINOMEscan competition binding; details: compound 10.0 µM
[52] = target: PLK4 (human) (UniProt O00444); assay: KINOMEscan competition binding; details: compound 10.0 µM
[53] = target: CSNK2A2 (human) (UniProt P19784); assay: KINOMEscan competition binding; details: compound 10.0 µM
[54] = target: PIM3 (human) (UniProt Q86V86); assay: KINOMEscan competition binding; details: compound 10.0 µM
[55] = target: PDGFRA (human) (UniProt P16234); assay: KINOMEscan competition binding; details: compound 10.0 µM
[56] = target: STK24 (human) (UniProt Q9Y6E0); assay: KINOMEscan competition binding; details: compound 10.0 µM
[57] = target: RET (human) (UniProt P07949); assay: KINOMEscan competition binding; details: compound 10.0 µM
[58] = target: STK17A (human) (UniProt Q9UEE5); assay: KINOMEscan competition binding; details: compound 10.0 µM
[59] = target: KIT (human) (UniProt P10721); assay: KINOMEscan competition binding; details: compound 10.0 µM
[60] = target: DDR2 (human) (UniProt Q16832); assay: KINOMEscan competition binding; details: compound 10.0 µM
[61] = target: HIPK1 (human) (UniProt Q86Z02); assay: KINOMEscan competition binding; details: compound 10.0 µM
[62] = target: PIM2 (human) (UniProt Q9P1W9); assay: KINOMEscan competition binding; details: compound 10.0 µM
[63] = target: CSNK2A1 (human) (UniProt P68400); assay: KINOMEscan competition binding; details: compound 10.0 µM
[64] = target: MAPK8 (human) (UniProt P45983); assay: KINOMEscan competition binding; details: compound 10.0 µM
[65] = target: CDK11A (human) (UniProt Q9UQ88); assay: KINOMEscan competition binding; details: compound 10.0 µM
[66] = test system: KIT (human), P10721 [V559D]; assay: KINOMEscan competition binding; details: compound 10.0 µM
[67] = target: STK17B (human) (UniProt O94768); assay: KINOMEscan competition binding; details: compound 10.0 µM
[68] = target: PIM1 (human) (UniProt P11309); assay: SelectScreen, TR FRET
[69] = target: PIM2 (human) (UniProt Q9P1W9); assay: SelectScreen, TR FRET
[70] = target: EPHA8 (human) (UniProt P29322); assay: KINOMEscan competition binding; details: compound 10.0 µM
[71] = target: TTK (human) (UniProt P33981); assay: SelectScreen, TR FRET

Sequence of TTK (human) (P33981 whole entry, looked up): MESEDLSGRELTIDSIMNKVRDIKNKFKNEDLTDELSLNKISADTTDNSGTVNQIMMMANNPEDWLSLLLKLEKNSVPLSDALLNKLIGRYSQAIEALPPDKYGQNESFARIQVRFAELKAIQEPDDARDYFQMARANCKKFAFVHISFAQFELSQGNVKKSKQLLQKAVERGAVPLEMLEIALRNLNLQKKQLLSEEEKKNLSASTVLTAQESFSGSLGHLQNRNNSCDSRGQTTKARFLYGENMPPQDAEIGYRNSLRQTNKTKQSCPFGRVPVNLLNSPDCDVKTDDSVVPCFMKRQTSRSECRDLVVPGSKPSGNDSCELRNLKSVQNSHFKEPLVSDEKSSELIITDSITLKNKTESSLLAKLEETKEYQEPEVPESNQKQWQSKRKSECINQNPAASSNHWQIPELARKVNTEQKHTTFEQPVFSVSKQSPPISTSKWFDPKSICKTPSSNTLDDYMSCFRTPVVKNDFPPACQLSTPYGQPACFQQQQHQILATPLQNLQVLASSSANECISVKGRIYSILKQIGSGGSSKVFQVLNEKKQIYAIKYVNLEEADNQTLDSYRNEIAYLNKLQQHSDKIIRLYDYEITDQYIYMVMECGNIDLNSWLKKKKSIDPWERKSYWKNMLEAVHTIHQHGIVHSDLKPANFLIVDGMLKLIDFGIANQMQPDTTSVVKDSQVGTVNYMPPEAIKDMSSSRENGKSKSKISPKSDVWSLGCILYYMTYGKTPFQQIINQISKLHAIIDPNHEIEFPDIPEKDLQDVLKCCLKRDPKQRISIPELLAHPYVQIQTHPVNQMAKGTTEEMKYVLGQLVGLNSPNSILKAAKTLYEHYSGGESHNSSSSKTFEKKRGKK
Sequence of STK10 (human) (O94804 whole entry, looked up): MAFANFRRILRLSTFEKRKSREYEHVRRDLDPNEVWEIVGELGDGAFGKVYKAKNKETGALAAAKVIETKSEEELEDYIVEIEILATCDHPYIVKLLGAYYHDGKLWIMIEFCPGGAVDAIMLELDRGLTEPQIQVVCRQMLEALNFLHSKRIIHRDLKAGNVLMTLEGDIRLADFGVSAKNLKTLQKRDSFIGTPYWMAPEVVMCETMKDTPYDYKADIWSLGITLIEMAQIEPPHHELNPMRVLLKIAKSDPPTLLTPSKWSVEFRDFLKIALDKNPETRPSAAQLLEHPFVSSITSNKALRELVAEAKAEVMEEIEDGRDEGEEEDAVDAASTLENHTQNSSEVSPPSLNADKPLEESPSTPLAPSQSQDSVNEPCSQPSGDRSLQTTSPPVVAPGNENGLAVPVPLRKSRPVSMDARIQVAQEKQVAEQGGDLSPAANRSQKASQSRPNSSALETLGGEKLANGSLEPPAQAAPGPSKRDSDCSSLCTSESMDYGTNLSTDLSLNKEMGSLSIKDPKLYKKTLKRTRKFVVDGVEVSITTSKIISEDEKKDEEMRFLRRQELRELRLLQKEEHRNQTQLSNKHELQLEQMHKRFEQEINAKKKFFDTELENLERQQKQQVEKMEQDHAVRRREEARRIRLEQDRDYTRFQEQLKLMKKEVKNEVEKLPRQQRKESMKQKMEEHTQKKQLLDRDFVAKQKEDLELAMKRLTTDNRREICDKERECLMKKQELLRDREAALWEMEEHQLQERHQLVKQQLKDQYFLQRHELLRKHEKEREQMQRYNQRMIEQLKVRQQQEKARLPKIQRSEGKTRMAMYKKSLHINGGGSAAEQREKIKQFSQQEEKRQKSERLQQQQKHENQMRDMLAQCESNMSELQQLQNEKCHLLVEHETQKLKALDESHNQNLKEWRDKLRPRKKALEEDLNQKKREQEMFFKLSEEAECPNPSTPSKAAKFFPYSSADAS
Sequence of RPS6KA6 KD2 (human) (Q9UK32 whole entry, looked up): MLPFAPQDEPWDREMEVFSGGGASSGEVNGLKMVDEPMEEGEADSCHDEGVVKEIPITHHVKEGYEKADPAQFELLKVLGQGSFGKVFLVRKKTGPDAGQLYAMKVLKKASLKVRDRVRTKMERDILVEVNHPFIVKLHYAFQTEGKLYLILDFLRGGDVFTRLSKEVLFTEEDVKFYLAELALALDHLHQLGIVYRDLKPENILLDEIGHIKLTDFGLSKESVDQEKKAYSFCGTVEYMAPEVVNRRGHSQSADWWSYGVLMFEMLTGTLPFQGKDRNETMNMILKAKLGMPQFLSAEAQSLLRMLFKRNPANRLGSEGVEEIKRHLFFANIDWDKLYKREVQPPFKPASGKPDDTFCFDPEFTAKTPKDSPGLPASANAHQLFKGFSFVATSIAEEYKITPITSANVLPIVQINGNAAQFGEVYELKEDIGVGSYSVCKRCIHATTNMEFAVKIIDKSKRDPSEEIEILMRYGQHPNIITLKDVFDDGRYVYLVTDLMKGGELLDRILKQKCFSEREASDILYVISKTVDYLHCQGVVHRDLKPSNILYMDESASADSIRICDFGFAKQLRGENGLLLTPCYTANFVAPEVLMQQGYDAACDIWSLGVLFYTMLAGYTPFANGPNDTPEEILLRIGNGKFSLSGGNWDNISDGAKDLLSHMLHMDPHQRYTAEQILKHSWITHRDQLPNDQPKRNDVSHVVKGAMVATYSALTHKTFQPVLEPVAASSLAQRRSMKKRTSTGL
Sequence of PIM2 (human) (Q9P1W9 whole entry, looked up): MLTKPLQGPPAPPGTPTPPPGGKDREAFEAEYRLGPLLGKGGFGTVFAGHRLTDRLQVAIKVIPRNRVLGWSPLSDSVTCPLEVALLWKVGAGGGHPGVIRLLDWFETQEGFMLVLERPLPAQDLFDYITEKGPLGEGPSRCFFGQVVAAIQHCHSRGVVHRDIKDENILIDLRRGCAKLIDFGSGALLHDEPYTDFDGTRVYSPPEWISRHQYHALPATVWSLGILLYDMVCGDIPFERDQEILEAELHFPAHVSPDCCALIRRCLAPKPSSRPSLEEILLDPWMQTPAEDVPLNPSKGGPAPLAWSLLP
Sequence of PLK1 (human) (P53350 whole entry, looked up): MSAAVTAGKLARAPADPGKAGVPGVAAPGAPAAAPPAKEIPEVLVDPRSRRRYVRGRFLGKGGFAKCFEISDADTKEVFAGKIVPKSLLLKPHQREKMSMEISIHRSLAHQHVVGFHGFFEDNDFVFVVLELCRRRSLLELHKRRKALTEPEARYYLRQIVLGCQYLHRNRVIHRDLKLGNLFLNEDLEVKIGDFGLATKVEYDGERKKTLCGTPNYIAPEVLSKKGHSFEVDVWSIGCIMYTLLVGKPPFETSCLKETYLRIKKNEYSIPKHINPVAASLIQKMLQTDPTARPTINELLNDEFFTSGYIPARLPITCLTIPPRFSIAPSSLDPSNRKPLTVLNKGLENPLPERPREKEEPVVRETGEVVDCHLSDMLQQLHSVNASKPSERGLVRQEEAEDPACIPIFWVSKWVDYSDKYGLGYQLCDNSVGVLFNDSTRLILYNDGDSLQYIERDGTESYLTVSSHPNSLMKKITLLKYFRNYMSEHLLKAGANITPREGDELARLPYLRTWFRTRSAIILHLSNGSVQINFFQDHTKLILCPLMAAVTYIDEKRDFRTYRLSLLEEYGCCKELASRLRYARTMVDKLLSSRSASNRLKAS
Sequence of GAK (human) (O14976 whole entry, looked up): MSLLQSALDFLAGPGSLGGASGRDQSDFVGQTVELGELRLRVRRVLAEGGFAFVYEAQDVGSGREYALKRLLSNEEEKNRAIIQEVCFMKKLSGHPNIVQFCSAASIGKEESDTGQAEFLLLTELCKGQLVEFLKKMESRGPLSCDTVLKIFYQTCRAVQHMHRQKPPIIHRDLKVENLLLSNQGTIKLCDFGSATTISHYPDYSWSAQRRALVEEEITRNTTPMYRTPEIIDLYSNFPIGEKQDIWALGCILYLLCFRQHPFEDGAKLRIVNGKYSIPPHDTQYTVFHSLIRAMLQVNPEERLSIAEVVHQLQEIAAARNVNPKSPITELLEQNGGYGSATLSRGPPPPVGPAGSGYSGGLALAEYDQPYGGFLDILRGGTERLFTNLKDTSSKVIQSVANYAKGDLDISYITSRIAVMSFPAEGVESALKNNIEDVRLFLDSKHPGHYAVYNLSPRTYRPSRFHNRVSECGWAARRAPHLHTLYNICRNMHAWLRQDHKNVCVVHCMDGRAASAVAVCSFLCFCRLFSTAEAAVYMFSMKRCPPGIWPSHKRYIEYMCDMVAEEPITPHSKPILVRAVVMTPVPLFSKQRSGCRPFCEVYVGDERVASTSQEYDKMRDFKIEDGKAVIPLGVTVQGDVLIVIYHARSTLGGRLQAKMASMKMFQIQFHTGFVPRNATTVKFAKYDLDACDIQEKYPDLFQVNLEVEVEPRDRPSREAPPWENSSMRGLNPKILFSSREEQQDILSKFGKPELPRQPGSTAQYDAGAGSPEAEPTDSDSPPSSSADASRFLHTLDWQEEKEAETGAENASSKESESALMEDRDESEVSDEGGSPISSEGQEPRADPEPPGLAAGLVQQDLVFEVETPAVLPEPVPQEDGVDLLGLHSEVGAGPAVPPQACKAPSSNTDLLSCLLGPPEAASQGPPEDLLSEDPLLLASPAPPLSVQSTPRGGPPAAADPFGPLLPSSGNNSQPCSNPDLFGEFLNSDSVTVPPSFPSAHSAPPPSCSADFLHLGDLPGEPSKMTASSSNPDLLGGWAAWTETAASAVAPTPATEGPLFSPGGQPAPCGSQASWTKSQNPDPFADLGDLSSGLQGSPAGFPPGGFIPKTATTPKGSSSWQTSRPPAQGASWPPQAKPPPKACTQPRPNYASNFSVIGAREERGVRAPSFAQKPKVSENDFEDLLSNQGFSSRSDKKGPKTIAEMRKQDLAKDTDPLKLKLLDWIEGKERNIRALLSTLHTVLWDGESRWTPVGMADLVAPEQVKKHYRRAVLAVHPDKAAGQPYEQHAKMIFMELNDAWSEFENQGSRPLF

- kinase still bound, per cent of control [1]: 19%
- kinase still bound, per cent of control [2]: 13%
- kinase still bound, per cent of control [3]: 31%
- kinase still bound, per cent of control [4]: 13%
- kinase still bound, per cent of control [5]: 7.8%
- kinase still bound, per cent of control [6]: 29%
- kinase still bound, per cent of control [7]: 4.7%
- kinase still bound, per cent of control [9]: 3.2%
- kinase still bound, per cent of control [10]: 2.1%
- kinase still bound, per cent of control [11]: 10%
- kinase still bound, per cent of control [12]: 21%
- kinase still bound, per cent of control [13]: 14%
- kinase still bound, per cent of control [14]: 1%
- kinase still bound, per cent of control [15]: 31%
- kinase still bound, per cent of control [16]: 22%
- kinase still bound, per cent of control [17]: 18%
- kinase still bound, per cent of control [18]: 4%
- kinase still bound, per cent of control [19]: 14%
- kinase still bound, per cent of control [20]: 30%
- kinase still bound, per cent of control [21]: 1.2%
- kinase still bound, per cent of control [22]: 23%
- kinase still bound, per cent of control [23]: 33%
- kinase still bound, per cent of control [24]: 7.4%
- kinase still bound, per cent of control [25]: 26%
- kinase still bound, per cent of control [26]: 14%
- kinase still bound, per cent of control [27]: 11%
- kinase still bound, per cent of control [28]: 26%
- kinase still bound, per cent of control [29]: 7%
- kinase still bound, per cent of control [30]: 30%
- kinase still bound, per cent of control [31]: 26%
- kinase still bound, per cent of control [32]: 32%
- kinase still bound, per cent of control [33]: 1.9%
- kinase still bound, per cent of control [34]: 30%
- kinase still bound, per cent of control [35]: 32%
Compound: COc1cc(N2CCN(C)CC2)ccc1Nc1ncc2c(n1)N(C1CCCC1)C(C)CC(=O)N2 (centres undefined)
- kinase still bound, per cent of control [8]: 27%

- kinase still bound, per cent of control [36]: 18%
- kinase still bound, per cent of control [37]: 2.4%
- kinase still bound, per cent of control [38]: 12%
- kinase still bound, per cent of control [39]: 9%
- kinase still bound, per cent of control [7]: 20%
- kinase still bound, per cent of control [40]: 30%
- kinase still bound, per cent of control [9]: 30%
- kinase still bound, per cent of control [41]: 5.9%
- kinase still bound, per cent of control [11]: 0.15%
- kinase still bound, per cent of control [42]: 32%
- kinase still bound, per cent of control [43]: 3.9%
- kinase still bound, per cent of control [44]: 5.8%
- kinase still bound, per cent of control [45]: 29%
- kinase still bound, per cent of control [46]: 0.25%
- kinase still bound, per cent of control [16]: 18%
- kinase still bound, per cent of control [47]: 0.15%
- kinase still bound, per cent of control [48]: 13%
- kinase still bound, per cent of control [49]: 11%
- kinase still bound, per cent of control [50]: 34%
- kinase still bound, per cent of control [51]: 0%
- kinase still bound, per cent of control [52]: 33%
- kinase still bound, per cent of control [53]: 6.4%
- kinase still bound, per cent of control [54]: 7%
- kinase still bound, per cent of control [55]: 0.55%
- kinase still bound, per cent of control [56]: 25%
- kinase still bound, per cent of control [57]: 4.6%
- kinase still bound, per cent of control [58]: 15%
- kinase still bound, per cent of control [59]: 2.6%
- kinase still bound, per cent of control [60]: 7.6%
- kinase still bound, per cent of control [61]: 5.4%
- kinase still bound, per cent of control [62]: 0.4%
- kinase still bound, per cent of control [63]: 4.6%
- kinase still bound, per cent of control [64]: 32%
- kinase still bound, per cent of control [65]: 24%
- kinase still bound, per cent of control [66]: 1.2%
- kinase still bound, per cent of control [67]: 0.3%
- IC50 [68]: 774 nM
- IC50 [69]: 814 nM
Compound: CCN1CCN(Cc2cc(NC(=O)c3cccc4cc(-c5ccc(/C=C6\SC(=O)NC6=O)o5)ccc34)cc(C(F)(F)F)c2)CC1

- kinase still bound, per cent of control [10]: 14%
- kinase still bound, per cent of control [14]: 29%
- Kd [19]: 113 nM
- kinase still bound, per cent of control [19]: 2.4%
- kinase still bound, per cent of control [70]: 0%
- IC50 [71]: 605 nM
Compound: CC(C)Oc1cc(N2CCC(O)CC2)ccc1Nc1ncc2c(n1)N(C1CCCC1)CCC(=O)N2C
